The text below walks through data of US7045343B2, “Sterilization indicator test packs” (3M Innovative Properties Company, priority 1998, dated 2006).

The subject of test [1] is enzyme associated with Bacillus stearothermophilus spores. Kind of test: Rapid enzyme fluorescence readout of dual rapid readout indicators after prevacuum steam sterilization. It is filed as biochemical. The note with it: 4-pulse prevacuum steam 121° C. How it is done: (§1) The indicators prepared for the Examples were dual rapid readout indicators that provided both a rapid, enzyme-based efficacy test and a confirmatory spore outgrowth test. Spores coated on the carrier strip 16 served as the source of active enzyme whose activity was measured by the rapid enzyme test. These same spores were then incubated in the spore outgrowth portion of the test.
(§2) Bacillus stearothermophilus, commercially available as ATCC 7953 from American Type Culture Collection, Rockville, Md., was grown overnight (16 hours) at 58° C. in tryptic soy broth. This culture was used to inoculate the surface of agar plates consisting of 8 g/l nutrient broth, 4 g/l yeast extract, 0.1 g/l manganese chloride and 20 g/l agar at pH 7.2. Plates were incubated at 58° C. for 72 hours. Spores were scraped from the plates and suspended in sterile distilled water. The spores were separated from the vegetative debris by centrifuging the suspension at 7000 rpm and 4° C. for 20 minutes. The supernatant was poured off and the spores were resuspended in sterile distilled water. The cleaning procedure was repeated several times. After the final wash, the spores were suspended in sterile distilled water, at a concentration of approximately 1×10^8 spores per milliliter.
(§3) The spores were then treated with the chemicals identified in Tables 1–5. All chemicals tested were obtained from commercial sources. The spores were centrifuged at 6000 rpm for 10 minutes. The supernatant and coating chemical mixtures were heated at 60–80° C. for several minutes and vortexed to get the material into solution. The spores were then mixed into the sterilant-resistant chemical solution. The sterilant-resistant chemical solution was applied to 5×25 mm, 591 A paper strips (Schleicher & Schuell, Inc., Keene, N.H.) by pipetting 10–15 microliters to each strip for a final population of about 1×10^6 spores per strip. The strips were dried 16 hours at 37° C.
(§4) The treated spore strips were placed on the bottom of the outer container 12 of the indicator 10 and a barrier was inserted between the spore strip 16 and the inner container 18, which contained enzyme substrate. A […] ( 11/16 inch) disc of polypropylene blown microfiber material, with a weight of 200 g/m^2, commercially available as “THINSULATE™ 200-B brand Thermal Insulation” from 3M Company, St. Paul, Minn., was used as the barrier. The inner container 18 contained 0.67 ml nutrient medium, consisting of 17 g of a bacteriological peptone and a 0.17 g/l of L-alanine, as well as 0.1 g 4-methylumbelliferyl-alpha-D-glucoside, commercially available from Sigma Chemical Company, St. Louis, Mo., dissolved in 200 microliters of N,N-dimethylformamide, and 0.03 g bromocresol purple pH indicator dye, per liter of water. The pH of the enzyme substrate and nutrient medium solution was adjusted to 7.6 with 0.1N sodium hydroxide.
(§5) Sterilization indicators were made as described above with each of the chemicals and concentrations described in Table 1. Control indicators were made using untreated spores. The indicators were placed in metal instrument trays and exposed at 121° C. in a Getinge Steam Sterilizer (Getinge International, Inc., 1100 Towbin Ave., Lakewood, N.J.) using a 4-pulse prevacuum cycle at 121° C. with a vacuum level of 0.075–0.085 bar and a steam pulse to 1.00 bar for each pulse. Indicators were exposed in the sterilizer for between 7 and 13 minutes. This cycle is depicted in the time-pressure diagram in FIG. 5. After exposure the inner containers containing the enzyme substrate and nutrient medium were crushed and the indicators were incubated at 60° C. The indicators were examined for fluorescence using a 3M™ ATTEST™ Model 190 Rapid Autoreader, commercially available from 3M Company, St. Paul, Minn. Additionally, spore growth, as indicated by a color change from purple to yellow, was determined visually after 168 hours of incubation at 60° C. […]

Test [2] concerns Bacillus stearothermophilus spores. Put plainly: Spore outgrowth (color change) of indicators after prevacuum steam sterilization. Type of test: cell-based. The note with it: 4-pulse prevacuum steam 121° C. The procedure:
as §1, §2, §3, §4, §5

The mark [3] stands for this setting: Example 4, 25 mg/ml coating, 7–18 min.
Setting [4] is: Example 4, 50 mg/ml coating, 7–18 min.
Where [5] appears, read: Example 4, 100 mg/ml coating, 7–18 min.
[6] abbreviates: Example 1, 5 mg/ml coating, 7–13 min.
The mark [7] stands for this setting: Example 1, 10 mg/ml coating, 7–13 min.
Where [8] appears, read: Example 1, 20 mg/ml coating, 7–13 min.
The mark [9] stands for this setting: Example 1, 40 mg/ml coating, 7–13 min.
[10] abbreviates: Example 2, 5 mg/ml coating, 7–13 min.
Setting [11] is: Example 2, 10 mg/ml coating, 7–13 min.
Setting [12] is: Example 2, 20 mg/ml coating, 7–13 min.
[13] abbreviates: Example 2, 40 mg/ml coating, 7–13 min.
[14] abbreviates: Example 2, 80 mg/ml coating, 7–13 min.
Where [15] appears, read: Example 5, 50 mg/ml coating, 7–13 min.
The mark [16] stands for this setting: Example 5, 100 mg/ml coating, 7–13 min.

Regarding Hexaglyceryl Distearate, the “accuracy of sterilization indicators compared to indicators made with untreated spores” value in test [1] is “improved”. Further, the “FLUORESCENCE - PERCENT POSITIVE 1 HR” value is reported as 27.6% in test [1] (setting [3]), 30.3% in test [1] (setting [4]) and 71.4% in test [1] (setting [5]). The “FLUORESCENCE - PERCENT POSITIVE 2 HR” value in test [1] (setting [3]) turned out to be 51.7%; in test [1] (setting [4]), 57.6%; in test [1] (setting [5]), 100%. Besides, the “FLUORESCENCE - PERCENT POSITIVE 3 HR” value is 58.6% in test [1] (setting [3]), 97% in test [1] (setting [4]) and 100% in test [1] (setting [5]). The “FLUORESCENCE - PERCENT POSITIVE 4 HR” value in test [1] (setting [3]) stood at 62.1%; in test [1] (setting [4]), 100%; in test [1] (setting [5]) it was 100%. The results for the “NO. GROWTH POSITIVE 168 HR” value in test [2] (setting [3]), in test [2] (setting [4]) and in test [2] (setting [5]) were 29, 33 and 21, respectively.
As to Tetraglyceryl Monostearate, the “FLUORESCENCE - PERCENT POSITIVE 1 HR” value in test [1] (setting [6]), in test [1] (setting [7]), in test [1] (setting [8]) and in test [1] (setting [9]) was 0% each time. Besides, the “FLUORESCENCE - PERCENT POSITIVE 2 HR” value in test [1] (setting [6]) came to 43.2%; in test [1] (setting [7]) it was 63.0%; in test [1] (setting [8]) it was 74.3%; in test [1] (setting [9]), 94.7%. Further, the “FLUORESCENCE - PERCENT POSITIVE 3 HR” value in test [1] (setting [6]) is 67.6%; in test [1] (setting [7]) it was 81.5%; in test [1] (setting [8]) it was 92.9%; in test [1] (setting [9]) it was 100.0%. Also, the “FLUORESCENCE - PERCENT POSITIVE 4 HR” value in test [1] (setting [6]) worked out at 83.8%; in test [1] (setting [7]) it was 94.4%; in test [1] (setting [8]) it was 100.0%; in test [1] (setting [9]), 100.0%. For the same compound, the “FLUORESCENCE - PERCENT POSITIVE 5 HR” value amounted to 94.6% in test [1] (setting [6]), 96.3% in test [1] (setting [7]), 100.0% in test [1] (setting [8]) and 100.0% in test [1] (setting [9]). The “FLUORESCENCE - PERCENT POSITIVE 6 HR” value in test [1] (setting [6]) came out at 97.3%; in test [1] (setting [7]) it was 98.1%; in test [1] (setting [8]), 100.0%; in test [1] (setting [9]), 100.0%. The “NO. GROWTH POSITIVE 168 HR” value was found to be 37 in test [2] (setting [6]), 54 in test [2] (setting [7]), 70 in test [2] (setting [8]) and 19 in test [2] (setting [9]).
On to `OCC(O)COCC(O)COCC(O)CO` (stereo not drawn) [Triglycerol], for which, in test [1], the “accuracy of sterilization indicators compared to indicators made with untreated spores” value was “did not improve the accuracy”. For the same compound, the “FLUORESCENCE - PERCENT POSITIVE 1 HR” value in test [1] (setting [10]), in test [1] (setting [11]), in test [1] (setting [12]), in test [1] (setting [13]) and in test [1] (setting [14]) was 0% in each case. The “FLUORESCENCE - PERCENT POSITIVE 2 HR” value was found to be 0% in test [1] (setting [10]); 6.7% in test [1] (setting [11]); 0% in test [1] (setting [12]); 0% in test [1] (setting [13]); 3.2% in test [1] (setting [14]). In addition, the “FLUORESCENCE - PERCENT POSITIVE 3 HR” value was found to be 0% in test [1] (setting [10]); 20.0% in test [1] (setting [11]); 8.3% in test [1] (setting [12]); 29.6% in test [1] (setting [13]); 38.7% in test [1] (setting [14]). Moreover, the “FLUORESCENCE - PERCENT POSITIVE 4 HR” value came out at 10.0% in test [1] (setting [10]); 26.7% in test [1] (setting [11]); 29.2% in test [1] (setting [12]); 48.1% in test [1] (setting [13]); 51.6% in test [1] (setting [14]). For the same compound, the “FLUORESCENCE - PERCENT POSITIVE 5 HR” value is listed as 30.0% in test [1] (setting [10]); 53.3% in test [1] (setting [11]); 41.7% in test [1] (setting [12]); 51.9% in test [1] (setting [13]); 58.1% in test [1] (setting [14]). Moreover, the “FLUORESCENCE - PERCENT POSITIVE 6 HR” value in test [1] (setting [10]) was 40.0%; in test [1] (setting [11]), 60.0%; in test [1] (setting [12]), 45.8%; in test [1] (setting [13]), 63.0%; in test [1] (setting [14]), 64.5%. Further, the “NO. GROWTH POSITIVE 168 HR” value in test [2] (setting [10]) came out at 10; in test [2] (setting [11]), 15; in test [2] (setting [12]), 24; in test [2] (setting [13]), 27; in test [2] (setting [14]) it was 31.
For the compound POE(60) Sorbitol Tetraoleate, in test [1] (setting [15]), the “FLUORESCENCE - PERCENT POSITIVE 1 HR” value is listed as 0%, the “FLUORESCENCE - PERCENT POSITIVE 2 HR” value turned out to be 0%, the “FLUORESCENCE - PERCENT POSITIVE 3 HR” value was 0% and the “FLUORESCENCE - PERCENT POSITIVE 4 HR” value is listed as 0%. Also, in test [1] (setting [16]), the “FLUORESCENCE - PERCENT POSITIVE 1 HR” value amounted to 0%, the “FLUORESCENCE - PERCENT POSITIVE 2 HR” value came to 0%, the “FLUORESCENCE - PERCENT POSITIVE 3 HR” value was 0% and the “FLUORESCENCE - PERCENT POSITIVE 4 HR” value is recorded as 0%. In addition, the “NO. GROWTH POSITIVE 168 HR” value in test [2] (setting [15]) stood at 2. Besides, the “NO. GROWTH POSITIVE 168 HR” value in test [2] (setting [16]) was 2.
